# Laboratory results as given in patent US6632797B2, “Method of treating angiogenesis” (priority 1996, dated 2003).
# Values joined by “and” are separate entries in the source; they are usually repeats but may differ in a detail not shown here. Identical values can stand only once.
# Key:
# [1] = Binding constants to the polyamine spermine; format: physicochemical; conditions: 1:1:5 complex; 0.1 M N-tetramethylbromide at 25° C.
# Description: The interaction between a polyamine, spermine and different triphosphorylated compounds were investigated in order to determin the binding constants. Spermine is a basic polyamine comprising domains of similar basicity to basic domains in growth factors. Spermine and the different phosphorylated compounds forms different complexes and the 1:1:5 complex was used as the complex for determination of binding constants.
# The following binding constants, log Ks was determined in 0.1 M N-tetramethylbromide at 25° C.: […]
# [2] = tested on: Fibroblast growth factor (FGF); test: Interaction between FGF and radioactive IP3, co-elution on Sephadex G-25 / Heparin-Sepharose columns; format: binding; conditions: co-elution from Sephadex G-25, 50 mM Hepes pH 7.4
# Description: The mixture was incubated for 1 hour at 4° C.
# This type of column fractionate substances according to molecular weight. Substances with molecular weight exceeding 1500 will not penetrate the microspheres of the column and will accordingly elute quite soon after being loaded to the column, while smaller molecules will appear later as they partly or totally penetrate the microspheres depending on the molecular weight.
# The incubate was loaded on the column and was uluted with 50 mM Hepes in fractions of 0.4 ml each.
# To further determine the interaction the fractions with radioactivity and UV absorbance were loaded on a Heparin-Sepharose CL-6B column (Pharmacia Biotech, Sweden) (volume 25 ml, height 20 cm). […] Elution was performed with 50 mM Hepes, pH 7.4 and each fraction of 1 ml was collected for determination of radioactivity and UV absorbance. A peak with radioactivity but without UV absorption was loaded on a similar Sephadex G-25 column as described above and was eluted with the same type of buffer. Maximum radioactivity was obtained in fraction number 13 i.e. in this case the substance with radioactivity was more retained on the column.
# [3] = tested on: basic fibroblast growth factor (b FGF); test: b FGF-induced bone formation on the calvaria of mice; format: in vivo; set-up: key to Severeness of bone formation: 0: no bone formation; ++++: severe bone formation
# Description: Injection of basic fibroblast growth factor (b FGF) stimulates osteoblastic activity and leads to bone formation.
# The osmotic minipumps were implanted on day 1.
# To the calvaria of each animal, 10 μl of b FGF (concentration 50 μg/ml) was injected four times daily of the period of day 2 to day 4.
# After the experimental period of 14 days each animal was investigated macroscopically and the histological preparations were further examined by conventional routines.
# Macroscopically visible bone formation was measured according to scale from
# 0 which represents no bone formation to
# ++++ which represents severe bone formation
# [4] = target: bovine brain clathrin assembly protein-2 (AP-2); test: Binding to clathrin assembly protein-2, competition with tritiated inositoltetraphosphate; conditions: competition with 10 nM tritiated inositoltetraphosphate, on ice, ten minutes
# Description: The binding assay was done in a total volume of 100 μl buffer containing […] Na HEPES pH 7.1, […], […], 5 mg/ml IgG, 10 nM tritiated inositoltetraphosphate and 1.46 μg of AP-2. […] Incubation was carried out on ice for a period of ten minutes and then the protein was co-precipitated with IgG using 5% (w/w) polyethylene glycol and pelleted by centrifugation at […] for 10 minutes. The supernatants were aspirated, the pellets were wasted with 0.2 ml water and resuspended in 0.2 ml water and transferred to scintillation vials. 5.0 ml of cyto scint fluid was added to each vial and the radioactivity was measured.
# [5] = tested on: heterotopic bone formation; test: Rabbit heterotopic bone (HB) development model; format: in vivo; set-up: key: ++++: very marked amount of HB; +++: marked amount of HB; ++: between slight and marked amount of HB; +: slight amount of HB; 0: none amount of HB; conditions: 1 mg/kg/hour s.c. osmotic minipump, day 42
# Description: Heterotopic bone formation is caused by a local growth and formation of bone. One essential component in this process is the activation of growth factors.
# The right hind limb of adult rabbits (weight about 4.0 kg) was immobilized with the knee in extension by means of a plastic splint and an elastic bandage, so that the Vastus intermedius profundus (VIP) muscle was in a shortened position and the hip joint could be moved freely.
# According to the standard model the rabbits were treated by removing the splint daily for 2-3 minutes for forcible and rapid manipulation of the knee.
# IP3 was administered via subcutaneously operated osmotic minipumps to three rabbits. The dose level was 1 mg/kg/hour, and the time of application period was 14-21 days. The control group, another three rabbits received NaCl-solution by osmotic minipumps.
# Anteposterior and lateral radiographs were made of the hind limbs of all rabbits weekly throughout the duration of the experiment which lasted 42 days.
# At the end of the experiment the rabbits were killed with an overdose of Mebunat and the left and right femoral bones of each rabbit were dissected and boiled for macroscopic examination.
# [6] = tested on: Vascular permeability factor (VPF); test: VPF-induced vascular permeability, Evans Blue distribution in guinea pigs; format: in vivo, guinea pig; conditions: 5 mg/kg intravenous; after 60 minutes; control 62 mm^2
# Description: Vascular permeability factor (VPF) promotes extravasation and oedema formation. Evans Blue was injected intravenously to 15 guinea pigs. This dye binds to plasma proteins and thereby provides a marker for vascular permeability to macromolecules.
# 50 mg of VPF was injected to each animal and the distribution of Evans Blue was measured.
# [7] = tested on: Wish tumour cells; test: Wish tumour cell-induced bone tumours on the calvaria of nude mice; format: in vivo; set-up: key: +: small and non-severe tumours; ++++: large and severe tumours; conditions: 120 mg/kg/day osmotic minipump for 14 days; individual animals
# Description: The injection of a specific cell-line Wish tumour cells, induces proliferation of osteoblasts on the calvaria of nude mice leading to bone tumours.
# Wish cells (American Type Culture Collection^R, ATCC (R) F-12784 25 CCL WITH×01166) were used for inocculation. Cells were grown on MEM supplemented with 15% FCS, 2% glutamine and streptomycin-penicillin/garamycin. Cells were grown as a monolayer and trypsinised and split in the ratio 1:3 to 1:4. All together 360 million cells were harvested and suspended in 7 ml for a final concentration of approximately 10 million cells per 0.2 ml.
# The osmotic pumps with IP3 and saline respectively were implanted on the same day as the inocculation of Wish-cells were performed.
# A 27 gauge needle on a 1 ml syringe was used for the injections of Wish-cells. The injection was done under the skin of the calvaria scratching the periosteum.
# At day 13 all animals were given an intraperiotoneal injection of demeclocycline (Sigma Chemicals Co. St Louis). All animals were investigated regarding the occurrence of and size of tumours. The size of tumours were measured according to a scale from
# + which represents small and non-severe tumours to
# ++++ which represents large and severe tumours.
# [8] = tested on: eye opening; test: Eye opening of new-born mice; format: in vivo; conditions: 192 μg/g/day, daily injections day 0 to day 7; controls 13.6 and 13.5 days
# Source text: Growth factors are involved in processes occuring in new-born mammals. The biological process of eye opening is one example where specific growth factors affect the timing and completeness of the event.
# Three groups of mice, 40 animals in each group were used. […] The third group served as a control without any treatment.
structure (smiles),measurement,setting,value
"O=P(O)(O)OC1C(O)C(O)C(O)C(OP(=O)(O)O)C1OP(=O)(O)O [IP3, D-myo-inositol-1,2,6-trisphosphate]",log Ks,[1],5.16
same,interaction between FGF and IP3,[2],strong interaction
same,histological examination of the calvaria,[3]; 120 mg/kg/day for 14 days,anti-angiogenic properties
same,Severeness of bone formation,"[3]; 120 mg/kg/day osmotic minipump for 14 days, individual animals",0
same,IC50,[4],600 ± 100 nM
same,Amount of HB,"[5]; application of IP3 14 days, individual rabbits, 1 mg/kg",+ and 0
same,Amount of HB,"[5]; application of IP3 21 days, individual rabbit",0
same,average area covered with Evans Blue,[6],15 mm^2
same,Severeness of tumours,[7],++++
same,"eye opening, medium value",[8],15.3 days
